Assay results reported in patent publication US7803821B2, “Fungicide N-cycloalkyl-carboxamide, thiocarboxamide and N-substituted-carboximidamide derivatives” (Bayer Cropscience SA, priority 2006, dated 2010).

Experiment: log P by HPLC on reversed-phase column (C18), EEC Directive 79/831 Annex V.A8
Assay type: physicochemical
Conditions: C18, 40° C., 0.1% aqueous formic acid and acetonitrile, gradient 10% to 90% acetonitrile
Protocol: Temperature: 40° C.; Mobile phases: 0.1% aqueous formic acid and acetonitrile; linear gradient from 10% acetonitrile to 90% acetonitrile.

Structure (SMILES)	logP
Cc1nn(C)cc1C(=O)N(C1CC1)C(C)c1cccnc1Cl (racemic) [Example 78]	1.58
CC(c1cccnc1Cl)N(C(=O)c1cn(C)nc1C(F)F)C1CC1 (racemic) [Example 81]	1.88
Cc1cc(C(=O)N(C2CC2)C(C)c2cccnc2Cl)no1 (racemic) [Example 83]	2.07
Cc1cc(C(=O)N(C2CC2)C(C)c2cccnc2Cl)nn1C (racemic) [Example 84]	1.78
CC(c1cnc(Cl)c(Cl)c1)N(C(=O)c1cn(C)nc1C(F)(F)F)C1CC1 (stereo not shown) [Example 1]	3.14
CC(c1cnc(Cl)c(Cl)c1)N(C(=O)c1cn(C)cc1C(F)(F)F)C1CC1 (stereo not shown) [Example 2]	3.34
Cc1cc(C(=O)N(C2CC2)C(C)c2cnc(Cl)c(Cl)c2)c(C)o1 (stereo not shown) [Example 3]	3.7
Cc1nn(C)c(F)c1C(=O)N(C1CC1)C(C)c1cnc(Cl)c(Cl)c1 (stereo not shown) [Example 4]	2.56
CC(c1cnc(Cl)c(Cl)c1)N(C(=O)c1cn(C)nc1C(F)F)C1CC1 (stereo not shown) [Example 5]	2.67
COc1nn(C)cc1C(=O)N(C1CC1)C(C)c1cnc(Cl)c(Cl)c1 (stereo not shown) [Example 6]	2.29
Cc1ccc(CN(C(=O)c2c(C)nn(C)c2F)C2CC2)cn1 [Example 7]	0.43
Cc1ccc(CN(C(=O)c2cn(C)nc2C(F)F)C2CC2)cn1 [Example 8]	0.52
Cc1nn(C)c(F)c1C(=O)N(Cc1cnc(Cl)cc1Cl)C1CC1 [Example 9]	2.28
Cn1cc(C(=O)N(Cc2cnc(Cl)cc2Cl)C2CC2)c(C(F)F)n1 [Example 10]	2.46
Cn1cc(C(=O)N(Cc2ccncc2)C2CC2)c(C(F)(F)F)n1 [Example 11]	0.59
Cc1nc(C(F)(F)F)c(C(=O)N(Cc2ccncc2)C2CC2)s1 [Example 13]	0.93
Cc1nc(C(F)F)c(C(=O)N(Cc2ccncc2)C2CC2)s1 [Example 14]	0.58
Cn1nc(C(=O)N(Cc2ccncc2)C2CC2)c(C(F)(F)F)n1 [Example 15]	1.03
Cn1cc(C(=O)N(Cc2ccncc2)C2CC2)c(C(F)(F)F)c1 [Example 16]	0.99
CCC(c1ccncc1)N(C(=O)c1cn(C)nc1C(F)F)C1CC1 (stereo not shown) [Example 18]	1.79
Cc1nc(C(F)F)c(C(=O)N(C2CC2)C(C)c2ncc(Cl)cc2Cl)s1 (stereo not shown) [Example 20]	3.64
Cn1cc(C(=O)N(Cc2ncc(Cl)cc2Cl)C2CC2)c(C(F)(F)F)n1 [Example 21]	3.21

Structure (SMILES)	logP
CCOc1nn(C)cc1C(=O)N(Cc1ncc(Cl)cc1Cl)C1CC1 [Example 22]	2.54
Cc1nc(C(F)(F)F)c(C(=O)N(Cc2ncc(Cl)cc2Cl)C2CC2)s1 [Example 23]	3.76
Cc1nc(C(F)F)c(C(=O)N(Cc2ncc(Cl)cc2Cl)C2CC2)s1 [Example 24]	3.42
O=C(c1sccc1I)N(Cc1ncc(Cl)cc1Cl)C1CC1 [Example 26]	4.16
Cc1nn(C)cc1C(=O)N(C1CC1)C(C)c1ncc(Cl)cc1Cl (stereo not shown) [Example 27]	2.4
Cc1nn(C)c(F)c1C(=O)N(C1CC1)C(C)c1ncc(Cl)cc1Cl (stereo not shown) [Example 28]	2.77
Cc1nn(C)c(F)c1C(=O)N(Cc1ncc(Cl)cc1Cl)C1CC1 [Example 29]	2.56
Cc1nn(C)c(F)c1C(=S)N(C1CC1)C(C)c1ncc(Cl)cc1Cl (stereo not shown) [Example 30]	3.9
CC(c1ncc(Cl)cc1Cl)N(C(=O)c1cn(C)nc1C(F)F)C1CC1 (stereo not shown) [Example 31]	3.01
CC(c1ncc(Cl)cc1Cl)N(C(=S)c1cn(C)nc1C(F)F)C1CC1 (stereo not shown) [Example 32]	4.01
CCc1nn(C)c(F)c1C(=O)N(C1CC1)C(C)c1ncc(Cl)cc1Cl (stereo not shown) [Example 33]	3.23
COc1nn(C)cc1C(=O)N(Cc1ncc(Cl)cc1Cl)C1CC1 [Example 34]	2.21
Cc1nn(C)c(F)c1C(=O)N(Cc1ccc(Oc2ccccc2)nc1)C1CC1 [Example 35]	2.39
Cn1cc(C(=O)N(Cc2ccc(Oc3ccccc3)nc2)C2CC2)c(C(F)F)n1 [Example 36]	2.61
CC(c1cnccn1)N(C(=O)c1ccsc1I)C1CC1 (stereo not shown) [Example 37]	2.38
CC(c1cnccn1)N(C(=O)c1ccco1)C1CC1 (stereo not shown) [Example 38]	1.62
Cc1nc(C(=O)N(C2CC2)C(C)c2cnccn2)c(C)o1 (stereo not shown) [Example 39]	1.55
Cn1cc(C(=O)N(Cc2ccc(Cl)nc2)C2CC2)c(C(F)(F)F)n1 [Example 65]	2.02
O=C(c1ccsc1I)N(Cc1ccc(Cl)nc1)C1CC1 [Example 66]	2.67
Cn1cc(C(=O)N(Cc2ccc(Cl)nc2)C2CC2)c(C(F)F)n1 [Example 72]	1.97
Cn1cc(C(=S)N(Cc2ccc(Cl)nc2)C2CC2)c(C(F)F)n1 [Example 73]	2.58
COc1nn(C)cc1C(=O)N(Cc1ccc(Cl)nc1)C1CC1 [Example 74]	1.56

More lines, now with the values ahead:

logP	Structure (SMILES)
1.25	Cc1nn(C)cc1C(=O)N(C1CC1)C(C)c1cnccn1 (stereo not shown) [Example 40]
2.04	Cc1ccoc1C(=O)N(C1CC1)C(C)c1cnccn1 (stereo not shown) [Example 41]
1.47	CC(c1cnccn1)N(C(=O)c1cn(C)nc1C(F)F)C1CC1 (stereo not shown) [Example 42]
2.05	CC(c1cnccn1)N(C(=S)c1cn(C)nc1C(F)F)C1CC1 (stereo not shown) [Example 43]
1.37	Cc1ncoc1C(=O)N(C1CC1)C(C)c1cnccn1 (stereo not shown) [Example 44]
1.65	Cc1cc(C(=O)N(C2CC2)C(C)c2cnccn2)no1 (stereo not shown) [Example 45]
1.45	Cc1cc(C(=O)N(C2CC2)C(C)c2cnccn2)nn1C (stereo not shown) [Example 46]
2.39	Cn1cc(C(=O)N(Cc2ccc(Cl)cn2)C2CC2)c(C(F)(F)F)n1 [Example 48]
1.98	CCOc1nn(C)cc1C(=O)N(Cc1ccc(Cl)cn1)C1CC1 [Example 49]
3.36	Cc1cc(C(=O)N(Cc2ccc(Cl)cn2)C2CC2)c(C(F)(F)F)o1 [Example 50]
2.93	Cc1nc(C(F)(F)F)c(C(=O)N(Cc2ccc(Cl)cn2)C2CC2)s1 [Example 51]
2.54	Cc1nc(C(F)F)c(C(=O)N(Cc2ccc(Cl)cn2)C2CC2)s1 [Example 52]
3.17	O=C(c1sccc1I)N(Cc1ccc(Cl)cn1)C1CC1 [Example 53]
2.08	Cn1cc(C(=O)N(Cc2ccc(Cl)cn2)C2CC2)c(C(F)F)n1 [Example 54]
2.75	COc1ccc(CN(C(=O)c2ccsc2I)C2CC2)cn1 [Example 55]
1.97	COc1ccc(CN(C(=O)c2ccco2)C2CC2)cn1 [Example 56]
1.89	COc1ccc(CN(C(=O)c2nc(C)oc2C)C2CC2)cn1 [Example 57]
1.53	COc1ccc(CN(C(=O)c2cn(C)nc2C)C2CC2)cn1 [Example 58]
2.46	COc1ccc(CN(C(=O)c2occc2C)C2CC2)cn1 [Example 59]
1.64	COc1ccc(CN(C(=O)c2c(C)nn(C)c2F)C2CC2)cn1 [Example 60]
1.8	COc1ccc(CN(C(=O)c2cn(C)nc2C(F)F)C2CC2)cn1 [Example 61]

logP	Structure (SMILES)
1.72	COc1ccc(CN(C(=O)c2ocnc2C)C2CC2)cn1 [Example 62]
2.08	COc1ccc(CN(C(=O)c2cc(C)on2)C2CC2)cn1 [Example 63]
1.74	COc1ccc(CN(C(=O)c2cc(C)n(C)n2)C2CC2)cn1 [Example 64]
2.82	Cc1nc(C(F)(F)F)ccc1CN(C(=O)c1cn(C)nc1C(F)(F)F)C1CC1 [Example 85]
2.51	Cc1nc(C(F)(F)F)ccc1CN(C(=O)c1cn(C)nc1C(F)F)C1CC1 [Example 87]
2.02	COc1nn(C)cc1C(=O)N(Cc1ccc(C(F)(F)F)nc1C)C1CC1 [Example 88]
3.21	O=C(c1ccsc1I)N(Cc1c(Cl)cncc1Cl)C1CC1 [Example 97]
2.18	Cc1nc(C(=O)N(Cc2c(Cl)cncc2Cl)C2CC2)c(C)o1 [Example 99]
1.8	Cc1nn(C)cc1C(=O)N(Cc1c(Cl)cncc1Cl)C1CC1 [Example 100]
2.87	Cc1ccoc1C(=O)N(Cc1c(Cl)cncc1Cl)C1CC1 [Example 101]
2.01	Cc1nn(C)c(F)c1C(=O)N(Cc1c(Cl)cncc1Cl)C1CC1 [Example 102]
1.88	Cn1cc(C(=O)N(Cc2c(Cl)cncc2Cl)C2CC2)c(C(F)F)n1 [Example 103]
2.93	Cn1cc(C(=S)N(Cc2c(Cl)cncc2Cl)C2CC2)c(C(F)F)n1 [Example 104]
2.04	Cc1ncoc1C(=O)N(Cc1c(Cl)cncc1Cl)C1CC1 [Example 105]
2.4	Cc1cc(C(=O)N(Cc2c(Cl)cncc2Cl)C2CC2)no1 [Example 106]
2	Cc1cc(C(=O)N(Cc2c(Cl)cncc2Cl)C2CC2)nn1C [Example 107]
1.18	COc1ccnc(CN(C(=O)c2cn(C)nc2C(F)(F)F)C2CC2)c1OC [Example 108]
1.47	COc1ccnc(CN(C(=O)c2ccsc2I)C2CC2)c1OC [Example 109]
1.2	COc1ccnc(CN(C(=O)c2sc(C)nc2C(F)F)C2CC2)c1OC [Example 110]
1.44	COc1ccnc(CN(C(=O)c2nn(C)nc2C(F)(F)F)C2CC2)c1OC [Example 111]
1.32	COc1ccnc(CN(C(=O)c2cn(C)cc2C(F)(F)F)C2CC2)c1OC [Example 112]

Same assay, conditions: reversed-phase HPLC column (C18), C18, 40° C., 0.1% aqueous formic acid and acetonitrile, gradient 10% to 90% acetonitrile

chromatographic logP	Structure (SMILES)
0.92	CCC(c1ccncc1)N(C(=O)c1c(C)nn(C)c1F)C1CC1 (stereo not shown) [Example 17, N-cyclopropyl-N-[1-pyridin-4-yl-propyl]-5-fluoro-1,3-dimethyl-1H-pyrazole-4-carboxamide]
1.65	COc1ccnc(CN(C(=O)c2c(C)nn(C)c2F)C2CC2)c1OC [Example 113, N-cyclopropyl-N-[(3,4-dimethoxypyridin-2-yl)methyl]-5-fluoro-1,3-dimethyl-1H-pyrazole-4-carboxamide]
